The record followed here is ChEMBL document CHEMBL1134992, “Six-membered cyclic ureas as HIV-1 protease inhibitors: a QSAR study based on CODESSA PRO approach. Quantitative structure-activity relationships” (Bioorg Med Chem Lett, 2002).

The test has as its target Human immunodeficiency virus type 1 protease (Human immunodeficiency virus 1, UniProt Q72874). In words: Inhibitory activity of compound against HIV-1 aspartyl protease. The note with it: read-out: Log 1/Ki (converted).

With `CNc1cc(CN2C(=O)N(Cc3ccc(F)c(NC)c3)[C@H](Cc3ccccc3)[C@H](O)[C@H]2CCc2ccccc2)ccc1F`, the Ki is 4.91 nM.
